Measured values as given in US8435976B2, “4-substituted pyridin-3-yl-carboxamide compounds and methods of use” (F. Hoffmann-La Roche, priority 2009, dated 2013).

Experiments:
[1] = molecular target: BaF3 PIM1 cells (Homo sapiens, UniProt P11309); experiment: BaF3 PIM1 cell proliferation (Cell Titer Glo); type: cell-based; settings: incubated overnight; read-out: Prolif BaF3_PIM1 (IC50)
Protocol: (§1) BaF3 parental line was obtained from the DSMZ repository. BaF3 lines transfected with PIM1 or PIM2 were generated. Mouse IL-3 was purchased from R&D Systems. G418 was purchased from Clontech. Media for BaF3 parental line contained RPMI, 10% FBS, 2 mM L-Glutamine, 2 ng/mL mIL-3. Media for BaF3 PIM1 & 2 lines contained RPMI, 10% FBS, 2 mM L-Glutamine, […]. Media for MM1.S line contained RPMI, 10% FBS, 2 mM L-Glutamine.
(§2) BaF3 parental cells, BaF3 PIM1 cells, BaF3 PIM2 cells, and MM1.S cells were seeded at 2 k/well, 5 k/well, 5 k/well, and 10 k/well respectively, in a 384-well plate, at 45 μL/well. Test compound was added at 5 μL/well. BaF3 cells (parental and transfected) were incubated overnight, while MM1.S cells were incubated for 72 hours at 37° C., 5% CO2. Cell Titer Glo Reagent (Promega) was added at 50 μL/well, the plates were incubated for 30 minutes, and their luminescence read on an HT Analyst. IC50/EC50 values for the test compound were calculated.

[2] = tested on: MM1.S cells; experiment: MM1.S cell proliferation, 72 hours (Cell Titer Glo); type: cell-based; settings: Homo sapiens, 72 hours, read-out: Prolif MM1S ATP (EC50)
Protocol: as §1, §2

[3] = molecular target: BaF3 PIM2 cells (Homo sapiens, UniProt Q9P1W9); experiment: BaF3 PIM2 cell proliferation (Cell Titer Glo); type: cell-based; settings: incubated overnight; read-out: Prolif BaF3_PIM2 (IC50)
Protocol: as §1, §2

[4] = molecular target: T1, PIM1 (Homo sapiens, UniProt P11309); experiment: Pim-1 kinase enzymatic assay (Caliper LC3000, FAM-Pimtide substrate); type: biochemical; settings: 20 pM PIM1, 10 μM ATP, 90 minutes; read-out: PIM1 LC3K (Ki)
T1 construct: made in house
Protocol: (§3) Reaction Buffer contained 10 mM HEPES, pH 7.2, 10 mM MgCl2, 0.01% Tween 20, 2 mM DTT.
(§4) PIM reactions were carried out in a final volume of 10 μL per well in a 384-well plate. […] The separation of product and substrate was optimized by choosing voltages and pressure using Caliper's Optimizer software (Hopkinton, Mass.). The separation conditions used a downstream voltage of −500V, an upstream voltage of −2150V, and a screening pressure of −1.2 psi. […] Substrate conversion was calculated from the electrophoregram using HTS Well Analyzer software (Caliper Life Sciences, Hopkinton, Mass.). Ki values for the test compound were calculated.

[5] = molecular target: T2, PIM3 (Homo sapiens, UniProt Q86V86); experiment: Pim-3 kinase enzymatic assay (Caliper LC3000, FAM-Pimtide substrate); type: biochemical; settings: 55 pM PIM3, 10 μM ATP, 90 minutes; read-out: PIM3 LC3K (Ki)
T2 construct: made in house
Protocol: as §3, §4

[6] = molecular target: T3, PIM2 (Homo sapiens, UniProt Q9P1W9); experiment: Pim-2 kinase enzymatic assay (Caliper LC3000, FAM-Pimtide substrate); type: biochemical; settings: 50 pM PIM2, 10 μM ATP, 90 minutes; read-out: PIM2 LC3K (Ki)
T3 construct: made in house
Protocol: as §3, §4

T1 sequence (P11309 whole entry): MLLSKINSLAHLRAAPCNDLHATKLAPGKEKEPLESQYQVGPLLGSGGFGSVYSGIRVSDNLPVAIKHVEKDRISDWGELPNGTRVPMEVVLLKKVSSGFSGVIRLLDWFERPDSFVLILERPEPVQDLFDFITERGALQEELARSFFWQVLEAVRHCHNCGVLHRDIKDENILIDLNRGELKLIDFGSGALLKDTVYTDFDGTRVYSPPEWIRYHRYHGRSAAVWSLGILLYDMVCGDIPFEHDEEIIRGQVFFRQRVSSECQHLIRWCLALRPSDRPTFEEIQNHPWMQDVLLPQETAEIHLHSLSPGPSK
Sequence of BaF3 PIM1 cells (P11309 whole entry, change not shown): as the sequence (P11309 whole entry) above
T3 sequence (Q9P1W9 whole entry): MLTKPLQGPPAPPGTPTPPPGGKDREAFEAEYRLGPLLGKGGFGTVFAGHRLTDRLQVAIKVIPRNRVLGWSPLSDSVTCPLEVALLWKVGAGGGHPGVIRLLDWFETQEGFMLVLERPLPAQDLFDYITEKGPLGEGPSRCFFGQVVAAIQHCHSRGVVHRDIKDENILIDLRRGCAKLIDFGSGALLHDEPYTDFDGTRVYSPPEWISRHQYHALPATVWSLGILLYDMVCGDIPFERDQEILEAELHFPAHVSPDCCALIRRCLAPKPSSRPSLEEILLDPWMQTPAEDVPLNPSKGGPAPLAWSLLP
Sequence of BaF3 PIM2 cells (Q9P1W9 whole entry, change not shown): as the sequence (Q9P1W9 whole entry) above

Row | GI50 [1] | EC50 [2] | GI50 [3] | Ki [4] | Ki [5] | Ki [6] | Structure (SMILES)
1 | 1500 nM | 1500 nM |  |  |  |  | Nc1sc(-c2c(F)cccc2F)nc1C(=O)Nc1cnccc1N1CCC[C@H](N)C1 (single isomer, unassigned) [Example 25]
2 | 33.2 nM | 108 nM | 1400 nM | 0.0224 nM | 0.0156 nM | 0.0671 nM | Nc1sc(-c2ccccc2F)nc1C(=O)Nc1cnccc1N1CCC[C@H](N)C1 [Example 1, (S)-5-amino-N-(4-(3-aminopiperidin-1-yl)pyridin-3-yl)-2-(2-fluorophenyl)thiazole-4-carboxamide]
3 | 67.2 nM | 218 nM | 2000 nM | 0.0355 nM | 0.0205 nM | 0.126 nM | Nc1sc(-c2ccccc2Cl)nc1C(=O)Nc1cnccc1N1CCC[C@H](N)C1 [Example 2, (S)-5-amino-N-(4-(3-aminopiperidin-1-yl)pyridin-3-yl)-2-(2-chlorophenyl)thiazole-4-carboxamide]
4 | 55.8 nM | 160 nM | > 2500 nM | 0.023 nM | 0.026 nM | 0.154 nM | Nc1sc(-c2cc(Br)ccc2F)nc1C(=O)Nc1cnccc1N1CCC[C@H](N)C1 [Example 4, (S)-5-amino-N-(4-(3-aminopiperidin-1-yl)pyridin-3-yl)-2-(5-bromo-2-fluorophenyl)thiazole-4-carboxamide]
5 | 300 nM | 1500 nM | 2800 nM | 0.044 nM | 0.05 nM | 0.493 nM | Nc1sc(-c2cc(Br)ccc2Cl)nc1C(=O)Nc1cnccc1N1CCC[C@H](N)C1 [Example 5, (S)-5-amino-N-(4-(3-aminopiperidin-1-yl)pyridin-3-yl)-2-(5-bromo-2-chlorophenyl)thiazole-4-carboxamide]
6 | 117 nM | 595 nM | 1400 nM | 0.063 nM | 0.032 nM | 0.379 nM | Nc1sc(-c2cccc(Br)c2)nc1C(=O)Nc1cnccc1N1CCC[C@H](N)C1 [Example 6, (S)-5-amino-N-(4-(3-aminopiperidin-1-yl)pyridin-3-yl)-2-(3-bromophenyl)thiazole-4-carboxamide]
7 | 73 nM | 141 nM | 3100 nM | 0.091 nM | 0.0215 nM | 0.203 nM | Nc1sc(-c2ccccc2)nc1C(=O)Nc1cnccc1N1CCC[C@H](N)C1 [Example 7, (S)-5-amino-N-(4-(3-aminopiperidin-1-yl)pyridin-3-yl)-2-phenylthiazole-4-carboxamide]
8 | 713 nM | > 20000 nM | > 20000 nM | 3.47 nM | 9.53 nM | 16.3 nM | Cc1nc(C(=O)Nc2cnccc2N2CCC[C@H](N)C2)c(N)s1 [Example 8, (S)-5-amino-N-(4-(3-aminopiperidin-1-yl)pyridin-3-yl)-2-methylthiazole-4-carboxamide]
9 | 68.8 nM | 89.7 nM | 1900 nM | 0.084 nM | 0.014 nM | 0.16 nM | Nc1sc(-c2ccccn2)nc1C(=O)Nc1cnccc1N1CCC[C@H](N)C1 [Example 9, (S)-5-amino-N-(4-(3-aminopiperidin-1-yl)pyridin-3-yl)-2-(pyridin-2-yl)thiazole-4-carboxamide]
10 | 3600 nM | > 20000 nM |  | 36.7 nM | 24 nM | 51.2 nM | Nc1scnc1C(=O)Nc1cnccc1N1CCC[C@H](N)C1 [Example 10, (S)-5-amino-N-(4-(3-aminopiperidin-1-yl)pyridin-3-yl)thiazole-4-carboxamide]
11 | 607 nM | 9200 nM | 13200 nM | 0.502 nM | 0.166 nM | 0.885 nM | Nc1sc(-c2cccnc2)nc1C(=O)Nc1cnccc1N1CCC[C@H](N)C1 [Example 11, (S)-5-amino-N-(4-(3-aminopiperidin-1-yl)pyridin-3-yl)-2-(pyridin-3-yl)thiazole-4-carboxamide]
12 |  | > 20000 nM |  | 0.102 nM | 0.04 nM | 0.403 nM | Nc1sc(-c2cccc(Cl)c2)nc1C(=O)Nc1cnccc1N1CCC[C@H](N)C1 [Example 13, (S)-5-amino-N-(4-(3-aminopiperidin-1-yl)pyridin-3-yl)-2-(3-chlorophenyl)thiazole-4-carboxamide]
13 |  | > 20000 nM |  | 36.7 nM | 9.25 nM | 195 nM | Nc1sc(-c2ccccc2)nc1C(=O)Nc1cccnc1 [Example 14, 5-amino-2-phenyl-N-(pyridin-3-yl)thiazole-4-carboxamide]
14 | 581 nM | 3200 nM | > 20000 nM | 0.735 nM |  | 3.55 nM | Nc1sc(-c2cn3ccccc3n2)nc1C(=O)Nc1cnccc1N1CCC[C@H](N)C1 [Example 19, (S)-5-amino-N-(4-(3-aminopiperidin-1-yl)pyridin-3-yl)-2-(imidazo[1,2-a]pyridin-2-yl)thiazole-4-carboxamide]
15 |  |  |  | 1200 nM | 496 nM | 4900 nM | Nc1[nH]c(-c2ccccc2)nc1C(=O)Nc1cnccc1N1CCC[C@H](N)C1 [Example 20, (S)-5-amino-N-(4-(3-aminopiperidin-1-yl)pyridin-3-yl)-2-phenyl-1H-imidazole-4-carboxamide]
16 | 410 nM | 3500 nM | 13300 nM | 0.6 nM |  | 2.51 nM | Nc1sc(-c2ccncc2)nc1C(=O)Nc1cnccc1N1CCC[C@H](N)C1 [Example 33, (S)-5-amino-N-(4-(3-aminopiperidin-1-yl)pyridin-3-yl)-2-(pyridin-4-yl)thiazole-4-carboxamide]
17 | 562 nM | 14000 nM |  | 2.18 nM | 3.77 nM | 8.69 nM | CC(C)c1nc(C(=O)Nc2cnccc2N2CCC[C@H](N)C2)c(N)s1 [Example 36, (S)-5-amino-N-(4-(3-aminopiperidin-1-yl)pyridin-3-yl)-2-isopropylthiazole-4-carboxamide]
18 | 2200 nM | 2100 nM |  | 1.14 nM |  | 0.635 nM | Nc1sc(C2CCCCC2)nc1C(=O)Nc1cnccc1N1CCC[C@H](N)C1 [Example 37, (S)-5-amino-N-(4-(3-aminopiperidin-1-yl)pyridin-3-yl)-2-cyclohexylthiazole-4-carboxamide]
19 | 3200 nM | 11900 nM |  | 3.73 nM | 12.7 nM | 33.8 nM | Nc1sc(Cc2ccccc2)nc1C(=O)Nc1cnccc1N1CCC[C@H](N)C1 [Example 38, (S)-5-amino-N-(4-(3-aminopiperidin-1-yl)pyridin-3-yl)-2-benzylthiazole-4-carboxamide]
20 |  | 4800 nM |  |  |  |  | N[C@H]1CCCN(c2ccncc2NC(=O)c2csc(-c3c(F)cccc3F)n2)C1 [Example 46, (S)-N-(4-(3-aminopiperidin-1-yl)pyridin-3-yl)-2-(2,6-difluorophenyl)thiazole-4-carboxamide]
21 | 1400 nM | 8000 nM |  | 1.33 nM | 0.487 nM | 6.84 nM | N[C@H]1CCCN(c2ccncc2NC(=O)c2csc(-c3ccccc3)n2)C1 [Example 48, (S)-N-(4-(3-aminopiperidin-1-yl)pyridin-3-yl)-2-phenylthiazole-4-carboxamide]
22 | 4000 nM | > 20000 nM |  | 29.7 nM | 91.2 nM | 259 nM | Nc1sc(Cc2ccccc2)nc1C(=O)Nc1cnccc1N1CCC[C@H](NC(=O)C(F)(F)F)C1 [Example 49, (S)-5-amino-2-benzyl-N-(4-(3-(2,2,2-trifluoroacetamido)piperidin-1-yl)pyridin-3-yl)thiazole-4-carboxamide]
23 |  | 158 nM |  | 0.032 nM | 0.028 nM | 0.12 nM | Nc1sc(-c2c(F)cccc2Cl)nc1C(=O)Nc1cnccc1N1CCC[C@H](N)C1 [Example 55, (S)-5-amino-N-(4-(3-aminopiperidin-1-yl)pyridin-3-yl)-2-(2-chloro-6-fluorophenyl)thiazole-4-carboxamide]
24 |  |  |  | 21.6 nM | 18 nM | 57.7 nM | Nc1sc(C2CCNC2)nc1C(=O)Nc1cnccc1N1CCCC(N)C1 (stereo not drawn) [Example 64, 5-amino-N-(4-(3-aminopiperidin-1-yl)pyridin-3-yl)-2-(pyrrolidin-3-yl)thiazole-4-carboxamide]
